The test system of one data set is Staphylococcus aureus. It counts as cell-based. The note with it: for Post Antibiotic Effect (hours) 0.5 × MIC: exposure one hour at 0.5 × MIC, S. aureus log phase; for Post Antibiotic Effect (hours) 1 × MIC: exposure one hour at 1 × MIC; for Post Antibiotic Effect (hours) 2 × MIC: exposure one hour at 2 × MIC; for Post Antibiotic Effect (hours) 4 × MIC: exposure one hour at 4 × MIC. Here is the method:
An exemplary pharmacokinetic parameter to aid in characterizing the properties of lipopeptide derivative compounds of the disclosure is post-antibiotic effect (PAE) of a lipopeptide derivative. For example, a bacterial culture with an initial count of 10^6 to 10^7 colony forming units per ml (CFU/ml) is treated with a certain concentration of lipopetide derivative for a certain time and a parallel (control) culture is left untreated. After treatment, the lipopetide derivative is removed from the culture (e.g., by dilution 1:1000 in fresh, lipopetide derivative-free medium), and the untreated culture is manipulated in the same way. Then the cultures are further incubated and monitored for bacterial growth over time. […] By way of background and not wishing to be bound by theory, a lipopeptide derivative having a measurable PAE activity will likely provide additional time for the host immune system to remove bacteria that might have survived antibiotic treatment and reproduced after the antibiotic is degraded, removed or filtered from the circulatory system. A longer PAE can influence the clinical outcome of antimicrobial therapy (i.e., a lower dose of a lipopetide derivative may be used to treat an infection or the frequency of a dosing regimen can be reduced).
After removal of the lipopeptide compounds, bacterial titre was determined each hour to monitor bacterial re-growth. The PAE duration is defined as the difference in time required for antimicrobial exposed bacterial cells versus unexposed bacterial cells to achieve an increase of 1 log10 unit in CFU/mL.

Another data set in a line: in vivo. The note with it: male, Sprague Dawley, rat, plasma, iv, 10 mg/kg. Here is the method:
Yet other exemplary in vivo models can be used to characterize the pharmacokinetics and pharmacodynamic parameters of antimicrobial compounds of this disclosure. Some parameters that can be measured include an in vivo half-life of a compound, elimination rate and clearance, volume of distribution, and bioavailability. For example, briefly, compounds can be administered as a single i.v. or oral (p.o.) dose in mice or rats. At various time points (ranging from 1 minute to 72 hours), blood from treated animals is collected and the concentration of lipopeptide derivative in the ex vivo plasma can be quantified by, for example, liquid chromatography with mass spectrometric detection (LC/MS). After quantification, pharmacokinetics parameters can be calculated using methods known in the art, such as a one compartment model with mono-exponential decay and linear regression analysis (see, e.g., Fantin et al., Antimicrob. Agents Chemotherap. 35: 1413. 1991).
A pharmacokinetic parameter that can be measured, and which aids in determining efficacy, after a single i.v. administration of an antimicrobial lipopeptide derivative of the instant disclosure is the systemic half-life of the compound. Briefly, test compounds were dissolved in a 5% mannitol solution (pH was then adjusted) to a concentration of 1 mg/mL (w/v). A single intravenous injection in the lateral caudal vein of Swiss CD1 mice (5 to 6 weeks old, female) or Sprague Dawley rats (male) was used to administer the lipopeptide derivative at a final dose of 10 mg/kg. At various time points (ranging from about 4 minutes to about 24 hours for mice, and 48 or 72 hours for rats) mice were sacrificed and blood was harvested. The concentration of lipopeptide derivative in ex vivo plasma was quantified using liquid chromatography (LC) with mass spectrometric detection (MS).

The nature of data set [1]: Acute toxicity, maximum tolerated dose (MTD). As to conditions: Swiss CD1, mouse, in vivo, iv. The method, then:
Another measure of toxicity is the maximum tolerated dose (MTD), which is determined as a dose level that is not accompanied by mortality or life-threatening toxicity. The dose ratio between toxic and therapeutic effect is the therapeutic index. […] The data obtained from these cell culture assays and animal studies can be used in formulating a dosage range that is not toxic for use in human subjects. […] The dosage may vary within this range depending upon the dosage form employed and the route of administration utilized. The exact formulation, route of administration and dosage can be chosen by the individual physician in view of the patient's condition or need thereof (see, e.g., Fingl et al., 1975, In: The Pharmacological Basis of Therapeutics, Chapter 1).
For example, to examine acute toxicity, lipopeptide antibiotics of the invention can be tested in an animal model, such as Swiss CD1 mice, to determine the MTD. In certain embodiments, the animals used to test toxicity of a particular compound can be approximately 5-6 weeks old at the start of the experiment and weigh 22-26 g. The lipopeptides may be administered intravenously (i.v.) into, for example, the caudal tail vein at dose levels that range from about 50 to about 500 mg/kg, or from about 75 to about 250 mg/kg, or from about 100 to about 200 mg/kg, or at a dose range at or below 100 mg/kg. The animals are generally observed immediately after administration, 1-2 hours post administration, 5-8 hours post administration, and once daily thereafter. Observations include both the activity level of the mouse as well as any physical side effects from the administered dose. The animal weight is recorded on day 0 (immediately before dosing) and on day 7.

Data set [2] deals with S. pneumoniae (SPN 0032, ATCC 10813). Put plainly: Intraperitoneal murine model of protection against infection (ED50, Table 21). The format is in vivo, Streptococcus pneumoniae. The note with it: Swiss CD1 mice infected i.p., compound i.v.
Data set [3] deals with E. faecalis EFS0040 (clinical isolate). Described as above. It counts as in vivo, Enterococcus faecalis. As to conditions: Swiss CD1 mice infected i.p., compound i.v.

The values below come from patent US7868135B2, “Compositions of lipopeptide antibiotic derivatives and methods of use thereof” (priority 2003, dated 2011).

One may read the half-life as the time needed for the level to fall by half in the phase considered. Low values mean fast loss, high ones slow loss. As usually defined, the MTD is the highest dose tested that stayed within the study's limit of toxicity. Regarding `CCCCCCCCCCCCCCC(=O)NC(CC(=O)O)C(=O)NC1C(=O)N2CCCCC2C(=O)NC(C(C)C(=O)O)C(=O)NC(CC(=O)O)C(=O)NCC(=O)NC(CC(=O)O)C(=O)NCC(=O)NC(C(C)NC(=O)CNC(=O)[C@@H](N)CCCCN)C(=O)NC(C(C)C)C(=O)N2CCCC2C(=O)NC1C` (some centres unmarked) [Compound 4, C15-Amphomycin-9-Gly-Lys], in the data set with Staphylococcus aureus, the “MIC used for the PAE experiment” value was 1 µg/mL, the “Post Antibiotic Effect (hours) 0.5 × MIC” value stood at 0.6 h, the “Post Antibiotic Effect (hours) 1 × MIC” value came out at 0.7 h and the “Post Antibiotic Effect (hours) 2 × MIC” value turned out to be 1.9 h. For the same molecule, in the data set on Staphylococcus aureus, the “Post Antibiotic Effect (hours) 4 × MIC” value was found to be 3.0 h. The molecule also yielded a half-life in the data set “in vivo” of 1.09 h. Further, the MTD at 7 days in data set [1] lay in the range of 200 to 400 mg/kg.

Regarding `CCCCCCCCCCCCCCC(=O)NC(CC(=O)O)C(=O)NC1C(=O)N2CCCCC2C(=O)NC(C(C)C(=O)O)C(=O)NC(CC(=O)O)C(=O)NCC(=O)NC(CC(=O)O)C(=O)NCC(=O)NC(C(C)NC(=O)CCN)C(=O)NC(C(C)C)C(=O)N2CCCC2C(=O)NC1C` (stereo not drawn) [Compound 147, C15-Amphomycin-9-(β-Ala)], in the data set with Staphylococcus aureus, the “MIC used for the PAE experiment” value was 1 µg/mL, the “Post Antibiotic Effect (hours) 0.5 × MIC” value is 1.6 h, the “Post Antibiotic Effect (hours) 1 × MIC” value came out at 1.6 h and the “Post Antibiotic Effect (hours) 2 × MIC” value was determined as 1.9 h. Also, the “Post Antibiotic Effect (hours) 4 × MIC” value in the data set on Staphylococcus aureus turned out to be 1.0 h. In the data set “in vivo”, this molecule showed a half-life of 4.58 h. The “ED50 in Mice, S. pneumoniae (SPN0032)” value in data set [2] came out at 0.65 mg/kg. The “ED50 in Mice, E. faecalis (EFS0040)” value in data set [3] was 0.8 mg/kg.

`CCCCCCCCCCCCCCC(=O)NC(CC(=O)O)C(=O)NC1C(=O)N2CCCCC2C(=O)NC(C(C)C(=O)O)C(=O)NC(CC(=O)O)C(=O)NCC(=O)NC(CC(=O)O)C(=O)NCC(=O)NC(C(C)NC(=O)CN(C)C(=O)[C@@H](N)CCCCN)C(=O)NC(C(C)C)C(=O)N2CCCC2C(=O)NC1C` (some centres unmarked) [Compound 199, C15-Amphomycin-9-Sar-Lys] showed a maximum tolerated dose (MTD) at 7 days in data set [1] of 200 to 400 mg/kg. Further, the “ED50 in Mice, E. faecalis (EFS0040)” value in data set [3] is recorded as 3 mg/kg.
